The results in this text go back to patent US20170073337A1, “DIHYDROTHIAZINE AND DIHYDROOXAZINE DERIVATIVES HAVING BACE1 INHIBITORY ACTIVITY” (Shionogi & Co., Ltd., priority 2014, published 2017).

Some results are limits rather than exact numbers.

Broadly, the IC50 is the concentration at which inhibition is half-maximal.

For experiment [1], the target named is T1, CYP2D6 (Homo sapiens, UniProt P10635).
T1 construct: The commercially available pooled human liver microsomes are used as an enzyme resource; from tissue; host or cells: pooled human liver microsomes
The experiment can be described thus: CYP inhibition test (CYP2D6). The format is in vitro ADME. Particulars: pooled human liver microsomes; dextromethorphan O-demethylation. An outline of the steps: (§1)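 Pooled human liver microsomes (0.2 mg protein/mL) with compound at 1, 5, 10 and 20 μmol/L and NADPH, at 37 °C. Marker substrates: dextromethorphan 5 μmol/L (2D6), terfenadine 1 μmol/L (3A4), S-mephenytoin 50 μmol/L (2C19), tolbutamide 100 μmol/L (2C9). Metabolites were measured by LC/MS/MS, and IC50 was derived by logistic fit of remaining activity against the DMSO control.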
On the technique in general: Microsomes from liver hold many membrane-bound enzymes, among them those of drug oxidation.

Experiment [2] relates to Aβ production in neuroblastoma SH-SY5Y cells (SH/APPwt). In words: β-amyloid (Aβ) production inhibitory effect in cell: 96-well. The format is cell-based. The following applies: Homo sapiens, Assay format 96-well. The essentials: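 SH-SY5Y cells overexpressing human wild-type APP, precultured 2 h at […] under 5% CO2, then exposed to test compound for 24 h (final DMSO 1%). Aβ1-40 in culture supernatant quantified by HTRF after overnight incubation at 4° C in the dark.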

In experiment [3] the target is T2, Recombinant human BACE1 (Homo sapiens, UniProt P56817).
T2 construct: purchased R&D Systems
The experiment can be described thus: Assay of BACE1 inhibitory activity: 96-well. The format is biochemical. Particulars: Assay format 96-well.

The target of experiment [4] is T3, CYP2C9 (Homo sapiens, UniProt P11712).
T3 construct: The commercially available pooled human liver microsomes are used as an enzyme resource; from tissue; host or cells: pooled human liver microsomes
In words: CYP inhibition test (CYP2C9). The format is in vitro ADME. Particulars: pooled human liver microsomes; tolbutamide methyl-hydroxylation. An outline of the steps:
as §1

T2 sequence (P56817 46-501): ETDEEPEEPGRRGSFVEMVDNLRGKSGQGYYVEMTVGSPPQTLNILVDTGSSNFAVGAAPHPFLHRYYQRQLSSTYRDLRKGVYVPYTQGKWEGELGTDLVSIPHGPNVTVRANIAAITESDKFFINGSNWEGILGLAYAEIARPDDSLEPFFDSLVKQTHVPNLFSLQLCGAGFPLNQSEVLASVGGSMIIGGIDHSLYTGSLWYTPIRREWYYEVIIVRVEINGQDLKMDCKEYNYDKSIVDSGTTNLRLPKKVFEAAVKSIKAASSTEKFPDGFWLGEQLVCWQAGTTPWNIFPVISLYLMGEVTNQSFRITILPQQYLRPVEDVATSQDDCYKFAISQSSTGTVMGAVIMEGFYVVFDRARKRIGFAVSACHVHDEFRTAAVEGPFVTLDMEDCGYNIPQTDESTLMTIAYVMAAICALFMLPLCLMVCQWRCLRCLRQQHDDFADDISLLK
T3 sequence (P11712 whole entry): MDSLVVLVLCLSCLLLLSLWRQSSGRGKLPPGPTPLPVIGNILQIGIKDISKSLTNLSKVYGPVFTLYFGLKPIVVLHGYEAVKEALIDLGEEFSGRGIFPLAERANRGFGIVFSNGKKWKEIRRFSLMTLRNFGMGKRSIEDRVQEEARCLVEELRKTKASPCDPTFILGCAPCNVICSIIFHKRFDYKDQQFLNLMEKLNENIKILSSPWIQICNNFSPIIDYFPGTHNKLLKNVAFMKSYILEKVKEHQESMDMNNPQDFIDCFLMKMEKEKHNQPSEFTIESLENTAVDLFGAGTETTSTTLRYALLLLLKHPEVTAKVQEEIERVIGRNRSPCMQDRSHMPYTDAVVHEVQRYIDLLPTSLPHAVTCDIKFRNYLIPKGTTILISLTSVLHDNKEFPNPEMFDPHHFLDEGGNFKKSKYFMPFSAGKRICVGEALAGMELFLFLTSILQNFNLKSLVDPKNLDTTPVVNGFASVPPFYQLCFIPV
T1 sequence (P10635 whole entry): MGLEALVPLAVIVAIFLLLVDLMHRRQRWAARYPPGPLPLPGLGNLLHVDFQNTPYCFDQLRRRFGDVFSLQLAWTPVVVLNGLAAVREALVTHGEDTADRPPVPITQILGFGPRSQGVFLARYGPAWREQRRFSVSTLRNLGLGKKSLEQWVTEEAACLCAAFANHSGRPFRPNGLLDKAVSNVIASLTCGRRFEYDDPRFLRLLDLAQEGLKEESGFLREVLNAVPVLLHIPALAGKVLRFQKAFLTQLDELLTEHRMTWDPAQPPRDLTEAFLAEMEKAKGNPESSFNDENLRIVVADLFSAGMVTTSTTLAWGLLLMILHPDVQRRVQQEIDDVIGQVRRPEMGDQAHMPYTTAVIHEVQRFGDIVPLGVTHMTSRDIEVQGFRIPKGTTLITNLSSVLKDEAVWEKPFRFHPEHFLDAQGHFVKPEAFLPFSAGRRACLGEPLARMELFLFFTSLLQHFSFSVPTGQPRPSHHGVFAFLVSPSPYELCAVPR

As to `C[C@]1(c2cc(NC(=O)c3cnc(OCF)cn3)ccc2F)N=C(N)OCC12CC(F)(F)C2` [Compound I-44], the half-inhibitory concentration (IC50) was no less than 10000 nM in experiment [1], 2.11 nM in experiment [2], 69.6 nM in experiment [3] and no less than 20000 nM in experiment [4].

On to `C[C@]1(c2cc(NC(=O)c3ccc(F)cn3)ccc2F)N=C(N)OCC12CC(F)(F)C2` [Compound I-45], for which the IC50 in experiment [1] was no less than 20000 nM; in experiment [2], 5.71 nM; in experiment [3], 134 nM; in experiment [4], no less than 20000 nM.
